Measured values taken from PubChem BioAssay (NCI).
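Interpolation was linear, between the two tested concentrations surrounding the appropriate level; five concentrations were tested over 48 hours in 96-well plates. GI50: concentration for 50% inhibition of growth. TGI: total growth inhibition.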

Columns and labels:
Test in all cases: NCI anticancer screen, dose series, 48 h
A498 renal = test system: A498 renal
A549 NSCLC = test system: A549 NSCLC
ACHN renal = test system: ACHN renal
BT-549 breast = test system: BT-549 breast
CAKI-1 renal = test system: CAKI-1 renal
CCRF-CEM leukemia = test system: CCRF-CEM leukemia
COLO 205 colon = test system: COLO 205 colon
DU-145 prostate = test system: DU-145 prostate
EKVX NSCLC = test system: EKVX NSCLC
HCC-2998 colon = test system: HCC-2998 colon
HCT-116 colon = test system: HCT-116 colon
HCT-15 colon = test system: HCT-15 colon
HL-60(TB) leukemia = test system: HL-60(TB) leukemia
HOP-62 NSCLC = test system: HOP-62 NSCLC
HOP-92 NSCLC = test system: HOP-92 NSCLC
HS 578T breast = test system: HS 578T breast
HT29 colon = test system: HT29 colon
IGROV1 ovarian = test system: IGROV1 ovarian
K-562 leukemia = test system: K-562 leukemia
KM12 colon = test system: KM12 colon
LOX IMVI melanoma = test system: LOX IMVI melanoma
M14 melanoma = test system: M14 melanoma
MALME-3M melanoma = test system: MALME-3M melanoma
MCF7 breast = test system: MCF7 breast
MDA-MB-231 breast = test system: MDA-MB-231 breast
MDA-MB-435 = test system: MDA-MB-435
MOLT-4 leukemia = test system: MOLT-4 leukemia
NCI-H226 lung = test system: NCI-H226 lung
NCI-H23 lung = test system: NCI-H23 lung
NCI-H460 lung = test system: NCI-H460 lung
NCI-H522 lung = test system: NCI-H522 lung
NCI/ADR-RES ovarian = test system: NCI/ADR-RES ovarian
OVCAR-3 ovarian = test system: OVCAR-3 ovarian
OVCAR-4 ovarian = test system: OVCAR-4 ovarian
OVCAR-5 ovarian = test system: OVCAR-5 ovarian
OVCAR-8 ovarian = test system: OVCAR-8 ovarian
PC-3 prostate = test system: PC-3 prostate
RPMI-8226 leukemia = test system: RPMI-8226 leukemia
RXF 393 renal = test system: RXF 393 renal
SF-268 CNS = test system: SF-268 CNS
SF-295 CNS = test system: SF-295 CNS
SF-539 CNS = test system: SF-539 CNS
SK-MEL-2 melanoma = test system: SK-MEL-2 melanoma
SK-MEL-28 melanoma = test system: SK-MEL-28 melanoma
SK-MEL-5 melanoma = test system: SK-MEL-5 melanoma
SK-OV-3 ovarian = test system: SK-OV-3 ovarian
SN12C renal = test system: SN12C renal
SNB-75 CNS = test system: SNB-75 CNS
SR leukemia = test system: SR leukemia
SW-620 colon = test system: SW-620 colon
T-47D breast = test system: T-47D breast
TK-10 renal = test system: TK-10 renal
U251 CNS = test system: U251 CNS
UACC-257 melanoma = test system: UACC-257 melanoma
UACC-62 melanoma = test system: UACC-62 melanoma
UO-31 renal = test system: UO-31 renal

Compound: CCN(CC)CCCCNc1c2ccc(Cl)cc2nc2ccc(OC)cc12
- GI50 (A498 renal): 1.21 µM
- TGI (A498 renal): 2.52 µM
- GI50 (A549 NSCLC): 0.367 µM
- TGI (A549 NSCLC): 2.58 µM
- GI50 (ACHN renal): 0.371 µM
- TGI (ACHN renal): 2.27 µM
- GI50 (BT-549 breast): 1.85 µM
- TGI (BT-549 breast): 3.77 µM
- GI50 (CAKI-1 renal): 1.14 µM
- TGI (CAKI-1 renal): 3.76 µM
- GI50 (CCRF-CEM leukemia): 0.524 µM
- TGI (CCRF-CEM leukemia): 5.3 µM
- GI50 (COLO 205 colon): 0.24 µM
- TGI (COLO 205 colon): 1.32 µM
- GI50 (DU-145 prostate): 0.34 µM
- TGI (DU-145 prostate): 1.62 µM
- GI50 (EKVX NSCLC): 0.608 µM
- TGI (EKVX NSCLC): 3.98 µM
- GI50 (HCC-2998 colon): 0.78 µM
- TGI (HCC-2998 colon): 2.32 µM
- GI50 (HCT-116 colon): 0.301 µM
- TGI (HCT-116 colon): 1.94 µM
- GI50 (HCT-15 colon): 0.289 µM
- TGI (HCT-15 colon): 1.62 µM
- GI50 (HL-60(TB) leukemia): 1.03 µM
- TGI (HL-60(TB) leukemia): 3.2 µM
- GI50 (HOP-62 NSCLC): 0.401 µM
- TGI (HOP-62 NSCLC): 2.89 µM
- GI50 (HOP-92 NSCLC): 0.271 µM
- TGI (HOP-92 NSCLC): 1.87 µM
- GI50 (HS 578T breast): 1.83 µM
- TGI (HS 578T breast): 4.76 µM
- GI50 (HT29 colon): 0.141 µM
- TGI (HT29 colon): 1.27 µM
- GI50 (IGROV1 ovarian): 0.777 µM
- TGI (IGROV1 ovarian): 8.61 µM
- GI50 (K-562 leukemia): 0.578 µM
- TGI (K-562 leukemia): 3.56 µM
- GI50 (KM12 colon): 0.456 µM
- TGI (KM12 colon): 2.61 µM
- GI50 (LOX IMVI melanoma): 0.213 µM
- TGI (LOX IMVI melanoma): 0.583 µM
- GI50 (M14 melanoma): 1.15 µM
- TGI (M14 melanoma): 2.58 µM
- GI50 (MALME-3M melanoma): 1.54 µM
- TGI (MALME-3M melanoma): 3.65 µM
- GI50 (MCF7 breast): 0.294 µM
- TGI (MCF7 breast): 1.69 µM
- GI50 (MDA-MB-231 breast): 0.478 µM
- TGI (MDA-MB-231 breast): 2.11 µM
- GI50 (MDA-MB-435): 1.05 µM
- TGI (MDA-MB-435): 2.31 µM
- GI50 (MOLT-4 leukemia): 0.306 µM
- TGI (MOLT-4 leukemia): 2.79 µM
- GI50 (NCI-H226 lung): 1.32 µM
- TGI (NCI-H226 lung): 3.35 µM
- GI50 (NCI-H23 lung): 0.524 µM
- TGI (NCI-H23 lung): 2.38 µM
- GI50 (NCI-H460 lung): 0.287 µM
- GI50 (NCI-H522 lung): 0.397 µM
- TGI (NCI-H522 lung): 2.66 µM
- GI50 (NCI/ADR-RES ovarian): 0.645 µM
- TGI (NCI/ADR-RES ovarian): 3.95 µM
- GI50 (OVCAR-3 ovarian): 0.501 µM
- TGI (OVCAR-3 ovarian): 2.99 µM
- GI50 (OVCAR-4 ovarian): 0.364 µM
- TGI (OVCAR-4 ovarian): 2.44 µM
- GI50 (OVCAR-5 ovarian): 0.465 µM
- TGI (OVCAR-5 ovarian): 3.33 µM
- GI50 (OVCAR-8 ovarian): 0.406 µM
- TGI (OVCAR-8 ovarian): 3.35 µM
- GI50 (PC-3 prostate): 0.482 µM
- TGI (PC-3 prostate): 2.74 µM
- GI50 (RPMI-8226 leukemia): 0.566 µM
- TGI (RPMI-8226 leukemia): 4.2 µM
- GI50 (RXF 393 renal): 0.381 µM
- TGI (RXF 393 renal): 1.78 µM
- GI50 (SF-268 CNS): 0.797 µM
- TGI (SF-268 CNS): 3.33 µM
- GI50 (SF-295 CNS): 0.717 µM
- TGI (SF-295 CNS): 2.47 µM
- GI50 (SF-539 CNS): 1.19 µM
- TGI (SF-539 CNS): 2.73 µM
- GI50 (SK-MEL-2 melanoma): 1.15 µM
- TGI (SK-MEL-2 melanoma): 3.31 µM
- GI50 (SK-MEL-28 melanoma): 1.71 µM
- TGI (SK-MEL-28 melanoma): 3.2 µM
- GI50 (SK-MEL-5 melanoma): 1.46 µM
- TGI (SK-MEL-5 melanoma): 2.9 µM
- GI50 (SK-OV-3 ovarian): 0.637 µM
- TGI (SK-OV-3 ovarian): 3.46 µM
- GI50 (SN12C renal): 0.438 µM
- TGI (SN12C renal): 2.61 µM
- GI50 (SNB-75 CNS): 1.09 µM
- TGI (SNB-75 CNS): 2.39 µM
- GI50 (SR leukemia): 0.207 µM
- TGI (SR leukemia): 1.53 µM
- GI50 (SW-620 colon): 0.277 µM
- TGI (SW-620 colon): 2.12 µM
- GI50 (T-47D breast): 1.22 µM
- TGI (T-47D breast): 4.54 µM
- GI50 (TK-10 renal): 0.925 µM
- TGI (TK-10 renal): 4.59 µM
- GI50 (U251 CNS): 0.45 µM
- TGI (U251 CNS): 2.16 µM
- GI50 (UACC-257 melanoma): 1.8 µM
- TGI (UACC-257 melanoma): 3.91 µM
- GI50 (UACC-62 melanoma): 1.69 µM
- TGI (UACC-62 melanoma): 3.47 µM
- GI50 (UO-31 renal): 0.759 µM
- TGI (UO-31 renal): 3.31 µM
